Laboratory results from ChEMBL document CHEMBL4007400, “Role of Reactive Oxygen Species (ROS) in Therapeutics and Drug Resistance in Cancer and Bacteria” (J Med Chem, 2017).

Biological target: T1, 4,4'-diapophytoene synthase (Staphylococcus aureus, UniProt A9JQL9)
T1 sequence (A9JQL9 whole entry): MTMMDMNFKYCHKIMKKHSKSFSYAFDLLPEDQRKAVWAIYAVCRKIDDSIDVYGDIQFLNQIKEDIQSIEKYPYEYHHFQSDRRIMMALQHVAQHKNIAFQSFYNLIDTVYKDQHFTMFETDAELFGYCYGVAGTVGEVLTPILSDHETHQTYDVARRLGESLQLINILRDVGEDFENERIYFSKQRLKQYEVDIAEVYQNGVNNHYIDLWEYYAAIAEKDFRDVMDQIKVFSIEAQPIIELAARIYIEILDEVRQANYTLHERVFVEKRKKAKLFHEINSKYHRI
Test: Inhibition of Staphylococcus aureus ATCC 27659 histidine-tagged full length CrtM expressed in Escherichia coli BL21(DE3) cells assessed as decrease in staphyloxanthin formation after 30 mins by continous spectrophotometric method

For O=P(O)(O)C(CCCc1cccc(Oc2ccccc2)c1)S(=O)(=O)O (stereo unspecified), the Ki was 1.5 nM.
